The values that follow come from paper PMC8076288, “Effect of respiratory inhibitors and quinone analogues on the aerobic electron transport system of Eikenella corrodens” (Scientific Reports, 2021).

In general, IC50 refers to the concentration needed to halve the response being measured.

The target of assay [1] is T1, dissimilatory nitrate reductase, Nar (Eikenella corrodens, UniProt V7IBI8).
T1 construct: gene HMPREF1177_02096; with Respiratory nitrate reductase beta subunit; Respiratory nitrate reductase gamma subunit
The assay can be described thus: oxidation of reduced methyl viologen at […] nm, membranes. The settings on record: 1 mM dithionite-reduced methyl viologen, 2 mM nitrate, pH 7.4, anaerobic. In kind it is biochemical.

Assay [2] has as its target T2, bc1 complex (complex III) (Eikenella corrodens, UniProt V7IIL5).
T2 construct: gene HMPREF1177_00380; native complex in isolated membrane particles, not purified; with Ubiquinol-cytochrome c reductase iron-sulfur subunit; Cytochrome c1
T2 sequence (V7IIL5 1-530): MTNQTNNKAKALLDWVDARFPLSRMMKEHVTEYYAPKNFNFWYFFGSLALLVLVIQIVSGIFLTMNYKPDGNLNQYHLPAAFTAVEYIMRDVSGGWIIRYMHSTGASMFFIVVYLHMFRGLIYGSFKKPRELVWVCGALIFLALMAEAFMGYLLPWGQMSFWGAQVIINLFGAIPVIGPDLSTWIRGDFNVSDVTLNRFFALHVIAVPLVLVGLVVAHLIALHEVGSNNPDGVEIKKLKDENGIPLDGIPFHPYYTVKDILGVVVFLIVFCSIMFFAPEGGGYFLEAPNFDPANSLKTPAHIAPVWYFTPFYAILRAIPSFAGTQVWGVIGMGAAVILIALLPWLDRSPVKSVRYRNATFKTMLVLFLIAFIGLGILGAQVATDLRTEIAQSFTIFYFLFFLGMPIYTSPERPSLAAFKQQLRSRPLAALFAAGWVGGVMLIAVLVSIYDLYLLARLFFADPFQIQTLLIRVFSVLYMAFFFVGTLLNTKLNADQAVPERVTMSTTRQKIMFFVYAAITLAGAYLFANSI
T2 sequence (V7IHH9 1-197 partner): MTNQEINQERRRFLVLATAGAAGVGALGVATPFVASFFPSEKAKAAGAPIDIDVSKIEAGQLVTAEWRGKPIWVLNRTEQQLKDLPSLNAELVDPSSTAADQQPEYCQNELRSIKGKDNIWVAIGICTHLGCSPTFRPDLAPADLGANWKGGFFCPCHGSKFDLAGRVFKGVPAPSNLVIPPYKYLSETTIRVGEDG
Description: polarographic O2 uptake (Clark electrode), succinate oxidase of membranes. The settings on record: succinate as substrate, 34 °C; read-out is the whole succinate respiration. In kind it is biochemical.

T1 sequence (V7IA22 entry or part of it): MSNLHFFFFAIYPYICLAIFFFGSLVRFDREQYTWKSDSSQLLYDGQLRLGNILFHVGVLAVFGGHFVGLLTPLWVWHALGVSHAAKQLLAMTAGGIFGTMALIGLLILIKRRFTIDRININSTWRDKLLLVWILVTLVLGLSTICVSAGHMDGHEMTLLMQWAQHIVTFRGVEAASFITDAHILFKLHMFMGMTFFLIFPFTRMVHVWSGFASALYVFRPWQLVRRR
T1 sequence (V7IBP6 entry or part of it, further chain): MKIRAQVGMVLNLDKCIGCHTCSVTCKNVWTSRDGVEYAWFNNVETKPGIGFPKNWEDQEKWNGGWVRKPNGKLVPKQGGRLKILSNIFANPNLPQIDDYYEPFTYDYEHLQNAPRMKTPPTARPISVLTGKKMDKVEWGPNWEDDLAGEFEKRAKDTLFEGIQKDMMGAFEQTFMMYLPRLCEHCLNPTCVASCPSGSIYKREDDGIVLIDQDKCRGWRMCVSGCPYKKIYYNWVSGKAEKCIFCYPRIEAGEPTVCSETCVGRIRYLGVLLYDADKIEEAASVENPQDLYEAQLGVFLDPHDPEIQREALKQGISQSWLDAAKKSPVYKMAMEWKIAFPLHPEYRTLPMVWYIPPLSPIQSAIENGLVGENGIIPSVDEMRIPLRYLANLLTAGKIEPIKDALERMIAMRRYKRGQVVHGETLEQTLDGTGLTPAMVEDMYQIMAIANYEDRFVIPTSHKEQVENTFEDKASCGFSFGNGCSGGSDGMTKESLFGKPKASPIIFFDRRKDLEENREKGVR
T1 sequence (V7IBI8 entry or part of it): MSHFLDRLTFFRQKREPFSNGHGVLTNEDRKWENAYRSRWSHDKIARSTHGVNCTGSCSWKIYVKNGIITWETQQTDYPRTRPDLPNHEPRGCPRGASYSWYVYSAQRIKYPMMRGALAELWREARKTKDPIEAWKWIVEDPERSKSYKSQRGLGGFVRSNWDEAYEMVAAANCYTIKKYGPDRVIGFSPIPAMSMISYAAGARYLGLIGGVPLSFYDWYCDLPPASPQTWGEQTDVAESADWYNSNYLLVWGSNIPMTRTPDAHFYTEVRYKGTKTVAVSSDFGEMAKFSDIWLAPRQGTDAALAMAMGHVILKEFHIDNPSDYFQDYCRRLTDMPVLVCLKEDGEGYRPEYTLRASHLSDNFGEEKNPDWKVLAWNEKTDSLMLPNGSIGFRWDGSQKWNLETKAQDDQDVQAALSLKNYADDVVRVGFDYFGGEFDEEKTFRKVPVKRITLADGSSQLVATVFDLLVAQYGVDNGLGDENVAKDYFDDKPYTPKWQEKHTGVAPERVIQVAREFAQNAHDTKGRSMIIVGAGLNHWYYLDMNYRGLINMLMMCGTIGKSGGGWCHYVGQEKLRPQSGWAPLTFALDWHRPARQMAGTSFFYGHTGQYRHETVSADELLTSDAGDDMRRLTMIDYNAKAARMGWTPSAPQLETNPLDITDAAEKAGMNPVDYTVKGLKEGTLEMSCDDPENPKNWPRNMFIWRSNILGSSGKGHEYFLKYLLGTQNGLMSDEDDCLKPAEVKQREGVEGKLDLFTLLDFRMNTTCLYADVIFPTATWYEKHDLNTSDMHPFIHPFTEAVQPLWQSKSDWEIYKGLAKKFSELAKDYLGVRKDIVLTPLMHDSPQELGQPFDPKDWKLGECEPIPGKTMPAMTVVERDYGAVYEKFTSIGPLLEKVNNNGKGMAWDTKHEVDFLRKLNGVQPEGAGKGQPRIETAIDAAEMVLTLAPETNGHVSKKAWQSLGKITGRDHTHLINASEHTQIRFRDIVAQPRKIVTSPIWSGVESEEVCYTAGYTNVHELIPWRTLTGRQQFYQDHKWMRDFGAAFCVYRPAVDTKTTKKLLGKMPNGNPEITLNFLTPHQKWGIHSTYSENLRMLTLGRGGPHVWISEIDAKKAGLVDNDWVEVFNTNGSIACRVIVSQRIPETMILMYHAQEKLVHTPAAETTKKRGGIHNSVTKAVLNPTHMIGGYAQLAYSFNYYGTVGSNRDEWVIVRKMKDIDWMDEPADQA

Turning to `O=[N+]([O-])O` [nitrate], in assay [1], the “oxidation of reduced methyl viologen at 600 nm, membranes” value is “The reaction was started by the injection of an anaerobic solution of potassium nitrate”.
On to antimycin A3, for which the half-inhibitory concentration (IC50) in assay [2] was found to be 20 µM.
Same read-out and setting: with `CCCCCCCc1cc(O)c2ccccc2[n+]1[O-]` [HQNO, 2-heptyl-4-hydroxyquinoline-N-oxide] the figure was 40 µM.
